From article PMC10272271, “MAM-2201 acute administration impairs motor, sensorimotor, prepulse inhibition, and memory functions in mice: a comparison with its analogue AM-2201” (Psychopharmacology, 2023)

Key:
human CB1 receptors [1] = target: T1, human CB1 receptors (Homo sapiens, UniProt P21554); experiment: [3H]-CP-55,940 competition binding, hCB1 CHO membranes; conditions: for selectivity index (ratio Ki CB2 / Ki CB1): human CB receptors
T1 construct: host or cells: CHO cells
Procedure: CHO cells transfected with human CB1 or CB2 receptors (Perkin Elmer Life and Analytical Sciences, USA) were grown adherently and maintained in Ham’s F12 containing 10% fetal bovine serum, penicillin (100 U/ml), streptomycin (100 µg/ml), and Geneticin (G418, 0.4 mg/ml) at 37 °C in 5% CO2/95% air. To obtain membranes, cells were washed with PBS and scraped off with ice-cold hypotonic buffer (5 mM Tris HCl, 2 mM EDTA, pH 7.4). The cell suspension was homogenized with a Polytron and then centrifuged for 30 min at 40,000 × g. The membrane pellet was suspended in 50 mM Tris HCl buffer (pH 7.4) containing 2.5 mM EDTA, 5 mM MgCl2, 0.5% BSA for CB1 receptors or in 50 mM Tris HCl (pH 7.4), 1 mM EDTA, 5 mM MgCl2, 0.5% BSA for CB2 receptors (Vincenzi et al. [2013]).
(§1) Competition binding experiments were carried out incubating 0.5 nM [^3H]-CP-55,940 (Perkin Elmer Life and Analytical Sciences, USA) and different concentrations of the tested compounds for 90 or 60 min at 30 °C for CB1 or CB2 receptors, respectively. For human cannabinoid receptors, membranes obtained from CHO cells transfected with human CB1 or CB2 receptors (2 µg protein/100 µl) were used. Competition binding experiments at murine cannabinoid receptors were performed with mouse brain membranes (40 µg protein/100 µl) or with mouse spleen membranes (80 µg protein/100 µl) for CB1 receptors or CB2 receptors, respectively. Non-specific binding was determined in the presence of 1 mM WIN 55,212–2 (Vincenzi et al. [2013]). Bound and free radioactivity were separated by filtering the assay mixture through Whatman GF/C glass fiber filters using a Brandel cell harvester (Brandel Instruments, Unterföhring, Germany). The filter-bound radioactivity was counted using a Packard Tri Carb 2810 TR scintillation counter (Perkin Elmer Life and Analytical Sciences, USA).
(§2) The protein concentration was determined according to a Bio-Rad method (500–0006; Bio-Rad Laboratories, Hercules, CA, USA) with bovine serum albumin as a reference standard. Inhibitory binding constants, Ki, were calculated from the IC50 values according to the Cheng and Prusoff equation: Ki = IC50/(1 + [C*]/KD*), where [C*] is the concentration of the radioligand and KD* its dissociation constant. Functional experiments were analyzed by non-linear regression analysis using the equation for a sigmoid concentration–response curve (GraphPad Prism, USA). All the data are expressed as the mean ± SEM of three independent experiments.

murine CB1 receptors = target: T2, murine CB1 receptors (Mus musculus, UniProt P47746); experiment: [3H]-CP-55,940 competition binding, mouse brain (cortex) membranes; conditions: for selectivity index (ratio Ki CB2 / Ki CB1): murine CB receptors
T2 construct: membranes from mouse brain and spleen were used, respectively; from tissue
Procedure: (§3) To evaluate the affinity of synthetic cannabinoids for murine CB1 and CB2 receptors, membranes from mouse brain and spleen were used, respectively. Following excision from mice, tissues were suspended in 50 mM Tris HCl, pH 7.4 at 4 °C. The mouse brain and spleen tissues were homogenized with a Polytron and subsequently centrifuged for 10 min at 2000 × g. The resulting supernatants were filtered, centrifuged for 20 min at 40,000 × g and the pellets were used for competition binding experiments (Vincenzi et al. [2013]).
as §1, §2

murine CB2 receptors = target: T3, murine CB2 receptors (Mus musculus, UniProt P47936); experiment: [3H]-CP-55,940 competition binding, mouse spleen membranes
T3 construct: membranes from mouse brain and spleen were used, respectively; from tissue; host or cells: mouse spleen membranes, CD-1 mice
Procedure: as §3
as §1, with “For human cannabinoid receptors, membranes obtained from CHO cells transfected with human CB1 or CB2 receptors (2 µg protein/100 µl) were used. Competition binding experiments at murine cannabinoid receptors were performed with mouse brain membranes (40 µg protein/100 µl) or with mouse spleen membranes (80 µg protein/100 µl) for CB1 receptors or CB2 receptors, respectively.” left out
The protein concentration was determined according to a Bio-Rad method (500–0006; Bio-Rad Laboratories, Hercules, CA, USA) with bovine serum albumin as a reference standard. […]

human CB1 receptors [2] = target: T1, human CB1 receptors; experiment: Cyclic AMP assay, hCB1 CHO cells; assay type: cell-based; conditions: for agonist behaviour (inhibition of forskolin-stimulated cAMP production): CHO cells, human CB1
Procedure: (§4) CHO cells transfected with human CB1 or CB2 receptors were washed with PBS, detached with trypsin, and centrifuged for 10 min at 200 × g. The pellet containing 1 × 10^6 cells/assay was suspended in 0.5 ml of buffer containing150 mM NaCl, 2.7 mM KCl, 0.37 mM NaH2PO4, 1 mM MgSO4, 1 mM CaCl2, 5 mM HEPES, 10 mM MgCl2, and 5 mM glucose, at pH 7.4 and 37 °C. Cells were pre-incubated with 0.5 mM of the phosphodiesterase inhibitor 4-(3-butoxy-4-methoxybenzyl)-2-imidazolidinone (Ro 20–1724;) for 10 min in a shaking bath at 37 °C. The potency of the examined compounds to inhibit adenylate cyclase activity was determined in the presence of forskolin 1-µM stimulation. The reaction was terminated by the addition of cold 6% trichloroacetic acid (TCA) and the final aqueous solution was tested for cyclic AMP levels by a competition protein binding assay (AlphaScreen cAMP Detection Kit, Cat. Number 6760635D, Perkin Elmer Life and Analytical Sciences, USA) following the manufacturer’s instructions; Vincenzi et al. [2013]).
as §2

human CB2 receptors = target: T4, human CB2 receptors (Homo sapiens, UniProt P34972); experiment: Cyclic AMP assay, hCB2 CHO cells; assay type: cell-based; conditions: for agonist behaviour (inhibition of forskolin-stimulated cAMP production): CHO cells, human CB2
T4 construct: host or cells: CHO cells
Procedure: as §4, §2

CB2 receptors = target: CB2 receptors; design: method as in Howlett et al. [2002]; Hess et al. [2015]; conditions: ref Howlett et al. [2002]; Hess et al. [2015]; read-out: CB2 receptor Ki; cited from earlier work
CD-1 male mice = test system: CD-1 male mice; design: method as in Bilel et al. ([2020]); conditions: i.p., value ± SEM, elaborated from earlier data, ref Bilel et al. ([2020]); cited from earlier work

T2 sequence (P47746 whole entry): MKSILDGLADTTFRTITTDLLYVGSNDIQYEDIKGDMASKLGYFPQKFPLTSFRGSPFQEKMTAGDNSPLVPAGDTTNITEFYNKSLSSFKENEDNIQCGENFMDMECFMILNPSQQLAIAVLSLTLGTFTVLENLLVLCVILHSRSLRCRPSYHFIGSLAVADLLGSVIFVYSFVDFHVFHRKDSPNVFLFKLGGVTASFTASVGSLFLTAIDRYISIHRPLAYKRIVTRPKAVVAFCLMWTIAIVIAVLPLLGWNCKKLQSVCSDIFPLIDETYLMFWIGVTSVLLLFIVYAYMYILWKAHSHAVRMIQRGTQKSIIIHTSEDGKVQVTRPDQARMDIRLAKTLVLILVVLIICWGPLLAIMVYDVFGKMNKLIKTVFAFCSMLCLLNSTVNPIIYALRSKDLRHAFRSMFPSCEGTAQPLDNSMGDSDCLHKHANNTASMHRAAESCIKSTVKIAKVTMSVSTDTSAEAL
T1 sequence (P21554 whole entry): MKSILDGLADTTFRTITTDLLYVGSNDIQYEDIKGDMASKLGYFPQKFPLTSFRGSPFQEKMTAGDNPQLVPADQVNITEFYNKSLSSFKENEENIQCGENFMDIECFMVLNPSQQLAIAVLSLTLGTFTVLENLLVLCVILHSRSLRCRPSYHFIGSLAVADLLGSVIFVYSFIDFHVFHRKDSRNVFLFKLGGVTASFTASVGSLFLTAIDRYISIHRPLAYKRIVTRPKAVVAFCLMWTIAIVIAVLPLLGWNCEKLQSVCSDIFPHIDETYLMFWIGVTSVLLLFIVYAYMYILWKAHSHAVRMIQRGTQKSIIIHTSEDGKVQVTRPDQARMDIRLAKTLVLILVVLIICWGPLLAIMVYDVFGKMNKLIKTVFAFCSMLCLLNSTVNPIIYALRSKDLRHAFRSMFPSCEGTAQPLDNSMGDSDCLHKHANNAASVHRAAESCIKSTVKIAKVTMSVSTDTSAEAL
T4 sequence (P34972 whole entry): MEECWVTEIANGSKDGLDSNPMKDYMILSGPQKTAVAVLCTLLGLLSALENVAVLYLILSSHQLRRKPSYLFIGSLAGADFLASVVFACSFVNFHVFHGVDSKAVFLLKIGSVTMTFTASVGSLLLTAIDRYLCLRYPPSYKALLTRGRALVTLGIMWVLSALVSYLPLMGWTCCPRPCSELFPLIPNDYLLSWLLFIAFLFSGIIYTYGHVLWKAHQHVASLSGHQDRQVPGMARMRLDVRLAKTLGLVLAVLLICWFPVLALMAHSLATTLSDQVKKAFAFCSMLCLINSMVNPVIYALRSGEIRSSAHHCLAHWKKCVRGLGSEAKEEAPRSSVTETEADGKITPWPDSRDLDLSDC
T3 sequence (P47936 whole entry): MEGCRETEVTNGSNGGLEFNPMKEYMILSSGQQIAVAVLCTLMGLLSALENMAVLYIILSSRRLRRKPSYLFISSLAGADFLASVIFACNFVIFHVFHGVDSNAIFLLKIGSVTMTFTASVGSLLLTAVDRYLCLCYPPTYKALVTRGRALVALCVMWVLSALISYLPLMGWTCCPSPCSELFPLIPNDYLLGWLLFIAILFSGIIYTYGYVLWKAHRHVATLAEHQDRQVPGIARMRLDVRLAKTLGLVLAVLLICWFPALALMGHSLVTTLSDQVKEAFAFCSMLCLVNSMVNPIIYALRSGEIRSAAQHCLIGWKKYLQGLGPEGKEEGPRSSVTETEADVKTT

| SMILES | Ki (human CB1 receptors [1]) [nM] | selectivity index (ratio Ki CB2 / Ki CB1) (human CB1 receptors [1]) | Ki (murine CB1 receptors) [nM] | selectivity index (ratio Ki CB2 / Ki CB1) (murine CB1 receptors) | Ki (murine CB2 receptors) [nM] | IC50 (human CB1 receptors [2]) [nM] | agonist behaviour (inhibition of forskolin-stimulated cAMP production) (human CB1 receptors [2]) | IC50 (human CB2 receptors) [nM] | agonist behaviour (inhibition of forskolin-stimulated cAMP production) (human CB2 receptors) | Ki (CB2 receptors) [nM] | ED50 (mg/kg), Overall tactile (CD-1 male mice) [mg/kg] |
| --- | --- | --- | --- | --- | --- | --- | --- | --- | --- | --- | --- |
| Cc1ccc(C(=O)c2cn(CCCCCF)c3ccccc23)c2ccccc12 [MAM-2201, 1-[(5-fluoropentyl)-1H-indol-3-yl](4-methyl-1-naphthalenyl) methanone] | 1.11 ± 0.12 | 9.3 | 1.07 ± 0.23 | 9.0 | 9.6 ± 1.9 | 1.26 ± 0.56 | full agonists | 22.4 ± 3.8 | full agonists | 0.582 ± 0.123 | – |
| O=C(c1cccc2ccccc12)c1cn(CCCCCF)c2ccccc12 [AM-2201, 1-[(5-Fluoropentyl)-1H-indol-3-yl](1-naphthylenyl) methanone] | 1.66 ± 0.13 | 9.9 | 1.96 ± 0.13 | 7.4 | 14.6 ± 1.2 | 2.84 ± 0.21 | full agonists | 31.8 ± 2.9 | full agonists | 2.6 | 2.120 ± 0.013 |
